27 compounds from patent publication US6372737B1 (priority 1996, dated 2002) can be followed below.

What all share (assay type): in vivo
One experiment relates to Sphaerotheca fuliginea. The experiment is described as follows: Sphaerotheca test (cucumber)/protective. The note with it: protective, 10 days after inoculation; for Emax at 12.5 g/ha / Emax at 2.5 g/ha: Podosphaera fuliginea, 240 h, read-out: % efficacy; for Emax at 12.5 g/ha: application rate 12.5 g/ha. As for the experimental part: To test for protective activity, young plants are sprayed with the commercial active compound preparation at the stated application rate. After the spray coating has dried on, the plants are inoculated with an aqueous spore suspension of Sphaerotheca fuliginea. The plants then remain in a greenhouse at about 23° C. and about 70% relative atmospheric humidity.
Evaluation is carried out 10 days after the inoculation. 0% means an efficacy corresponding to that of the control, and an efficacy of 100% means that no infection is observed.

In the next experiment the test system is Phytophthora infestans. Briefly: whole plant or invertebrate.
For experiment [1], the system named is Leptosphaeria nodorum. Briefly: Leptosphaeria nodorum test (wheat)/curative. The note with it: curative, 10 days after inoculation. As for the experimental part:
(§1) Solvent: 25 parts by weight of N,N-dimethylacetamide
(§2) Emulsifier: 0.6 part by weight of alkylaryl polyglycol ether
(§3) To produce a suitable preparation of active compound, 1 part by weight of active compound or active compound combination is mixed with the stated amounts of solvent and emulsifier, and the concentrate is diluted with water to the desired concentration.
To test for curative activity, young plants are sprayed with a conidia suspension of Leptosphaeria nodorum. The plants remain in an incubation cabin at 20° C. and 100% relative atmospheric humidity for 48 hours and are then sprayed with the preparation of active compound at the stated application rate.
The plants are placed in a greenhouse at a temperature of about 15° C. and a relative atmospheric humidity of about 80%.
(§4) Evaluation is carried out 10 days after the inoculation. 0% means an efficacy which corresponds to that of the control, whereas an efficacy of 100% means that no infection is observed.

Experiment [2] has as its system Puccinia recondita. Briefly: Puccinia test (wheat)/protective. Particulars: application rate 6.25 g/ha, protective, 10 days after inoculation; for pest or weed control at 6.25 g/ha: Puccinia recondita, 240 h, read-out: Efficacy in %. As for the experimental part:
as §1, §2, §3
To test for protective activity, young plants are sprayed with the preparation of active compound at the stated application rate. After the spray coating has dried on, the plants are sprayed with a conidia suspension of Puccinia recondita. The plants remain in an incubation cabin at 20° C. and 100% relative atmospheric humidity for 48 hours.
The plants are then placed in a greenhouse at a temperature of about 20° C. and a relative atmospheric humidity of 80%, in order to promote the development of rust pustules.
as §4

For experiment [3], the system named is Erysiphe graminis fsp. tritici. The experiment is described as follows: Erysiphe test (wheat)/protective. The note with it: protective, 7 days after inoculation. As for the experimental part:
as §1, §2, §3
To test for protective activity, young plants are sprayed with the preparation of active compound at the stated application rate.
After the spray coating has dried on, the plants are dusted with spores of Erysiphe graminis fsp. tritici.
(§5) The plants are placed in a greenhouse at a temperature of about 20° C. and a relative atmospheric humidity of about 80%, in order to promote the development of mildew pustules.
(§6) Evaluation is carried out 7 days after the inoculation. 0% means an efficacy which corresponds to that of the control, whereas an efficacy of 100% means that no infection is observed.

The subject of experiment [4] is Leptosphaeria nodorum. Briefly: Leptosphaeria nodorum test (wheat)/protective. The note with it: application rate 6.25 g/ha, protective, 10 days after inoculation; for pest or weed control at 6.25 g/ha: Parastagonospora nodorum, 240 h, read-out: Efficacy in %. As for the experimental part: as §1, §2, §3
To test for protective activity, young plants are sprayed with the preparation of active compound at the stated application rate. After the spray coating has dried on, the plants are sprayed with a spore suspension of Leptosphaeria nodorum. The plants remain in an incubation cabin at 20EC and 100% relative atmospheric humidity for 48 hours.
The plants are placed in a greenhouse at a temperature of about 15° C. and a relative atmospheric humidity of 80%.
as §4

Experiment [5] deals with Erysiphe graminis f.sp. hordei. Briefly: Erysiphe test (barley)/curative. Particulars: curative, 7 days after inoculation. As for the experimental part: as §1, §2, §3
To test for curative activity, young plants are dusted with spores of Erysiphe graminis f.sp. hordei. 48 hours after the inoculation, the plants are sprayed with the preparation of active compound at the stated application rate.
as §5, §6

Experiment [6] relates to Puccinia recondita. The experiment is described as follows: Puccinia test (wheat)/curative. The note with it: application rate 6.25 g/ha, curative, 10 days after inoculation. Here is the method:
as §1, §2, §3
To test for curative activity, young plants are sprayed with a conidia suspension of Puccinia recondita. The plants remain in an incubation cabin at 20° C. and 100% relative atmospheric humidity for 48 hours. The plants are subsequently sprayed with the preparation of active compound at the stated application rate.
The plants are placed in a greenhouse at a temperature of about 20° C. and a relative atmospheric humidity of about 80%, in order to promote the development of rust pustules.
as §4

The next experiment has as its system Fusarium nivale. The experiment is described as follows: Fusarium nivale test (triticale)/seed treatment. Particulars: dry seed dressing, about 3 weeks after sowing.
Experiment [7] relates to Erysiphe graminis f.sp. tritici. Briefly: Erysiphe test (wheat)/curative. Particulars: curative, 7 days after inoculation. Here is the method: as §1, §2, §3
To test for curative activity, young plants are dusted with spores of Erysiphe graminis f.sp. tritici. 48 hours after the inoculation, the plants are sprayed with the preparation of active compound at the stated application rate.
as §5, §6

Another experiment deals with Botrytis cinerea. Briefly: Botrytis test (beans)/protective. The note with it: 48 h, application rate 250 g/ha, protective, two days after inoculation, read-out: % efficacy. As for the experimental part: To test for protective activity, young plants are sprayed with the commercial active compound preparation at the stated application rate. After the spray coating has dried on, 2 small pieces of agar covered with Botrytis cinerea are placed on each leaf. The inoculated plants are placed in a darkened chamber at about 20° C. and 100% relative atmospheric humidity.
Two days after the inoculation, the size of the infected spots on the leaves is evaluated. 0% means an efficacy corresponding to that of the control, and an efficacy of 100% means that no infection is observed.

[8] abbreviates: Phytophthora infestans, in Solanum lycopersicum, 72 h, read-out: % efficacy.
[9] abbreviates: application rate 5 g/ha, tomato, protective, 3 days after inoculation.
[10] abbreviates: application rate 25 mg/kg of seed.
The mark [11] stands for this setting: application rate 75 mg/kg of seed.

Experimental for Fusarium nivale: To dress the seed, the infected seed together with the seed dressing is shaken for 3 minutes in a sealed glass flask.
About 3 weeks after sowing, the plants are evaluated for symptoms of snow mould.

Regarding `O=C1C2CC=CCC2C(=O)N1SC(Cl)(Cl)Cl` (stereo not drawn) [(θ), captan], the Emax at 12.5 g/ha with Sphaerotheca fuliginea turned out to be 0%.

Turning to `COCC(=O)N(c1c(C)cccc1C)C(C)C(=O)OC` (stereo not drawn) [(N), metalaxyl], the Emax at 5 g/ha with Phytophthora infestans (setting [8]) was 1%.

Take `CC1(C)CCC(Cc2ccc(Cl)cc2)C1(O)Cn1cncn1` (stereo not drawn) [(W), metconazole]: the Efficacy in % is 25% in the experiment with Leptosphaeria nodorum [1] (application rate 12.5 g/ha), 43% in experiment [3] (application rate 6.25 g/ha), 33% in experiment [5] (application rate 6.25 g/ha) and 50% with Puccinia recondita [6]. In addition, the pest or weed control at 6.25 g/ha with Puccinia recondita [2] is 75%; in the experiment on Leptosphaeria nodorum [4], 50%.

In the case of propineb [(A)], the “% efficacy” value in the experiment with Sphaerotheca fuliginea (application rate 25 g/ha) is 45%.

Take `CSC(=O)c1cccc2nnsc12` [(β)]: in the experiment on Phytophthora infestans (setting [9]), the “% efficacy” value is listed as 0%.

In the case of mancozeb [(II)], in the experiment on Phytophthora infestans (application rate 50 g/ha, tomato, protective, 3 days after inoculation), the “% efficacy” value amounted to 54%.

For the compound `CC1(C(=O)Nc2ccc(O)c(Cl)c2Cl)CCCCC1` [(ε), 2,3-dichloro-4-(1-methylcyclohexylcarbonylamino)-phenol], the Emax at 5 g/ha with Phytophthora infestans (setting [8]) was determined as 14%.

The compound `O=C(Nc1ccccc1)N(Cc1ccc(Cl)cc1)C1CCCC1` [(ρ), pencycuron] had an Efficacy in % in the experiment on Fusarium nivale (setting [10]) of 29%.

`COc1ccc(/C(=C/C(=O)N2CCOCC2)c2ccc(Cl)cc2)cc1OC` [(L), dimetomorph]: the Emax at 1 g/ha in the experiment on Phytophthora infestans (setting [8]) turned out to be 0%.

In the case of `CO/N=C(\C(=O)OC)c1ccccc1COc1ccccc1C` [(T), kresoxim-methyl], the Efficacy in % is recorded as 50% with Leptosphaeria nodorum [1] (application rate 12.5 g/ha), 86% in [3] (application rate 25 g/ha), 67% in experiment [5] (application rate 12.5 g/ha) and 0% in experiment [7] (application rate 6.25 g/ha). Moreover, the Emax at 1 g/ha in the experiment with Phytophthora infestans (setting [8]) is 14%. Besides, the figures for the pest or weed control at 6.25 g/ha in the experiment on Puccinia recondita [2] and in the experiment with Leptosphaeria nodorum [4] were 25% and 0%, respectively.

Consider `CN(C)S(=O)(=O)N(SC(F)(Cl)Cl)c1ccccc1` [(B1), dichlorofluanide], for which the “% efficacy” value in the experiment on Sphaerotheca fuliginea (application rate 25 g/ha) was 20%.

Turning to `CC(C)(C)C(O)C(Oc1ccc(-c2ccccc2)cc1)n1cncn1` (stereo not drawn) [(C), bitertanol], in the experiment with Sphaerotheca fuliginea (application rate 2.5 g/ha), the Emax at 2.5 g/ha stood at 20%.

Turning to `Cc1cc(C2CC2)nc(Nc2ccccc2)n1` [(R), cyprodinyl], the Efficacy in % was determined as 50% in the experiment with Leptosphaeria nodorum [1] (application rate 6.25 g/ha), 0% in experiment [3] (application rate 12.5 g/ha), 33% in the experiment on Puccinia recondita [6] and 17% in experiment [7] (application rate 25 g/ha). In the experiment with Phytophthora infestans (setting [8]), the Emax at 5 g/ha was 0%. In addition, the pest or weed control at 6.25 g/ha with Puccinia recondita [2] was determined as 13%; in the experiment with Leptosphaeria nodorum [4], 25%.

For `CC(C)(C)C(=O)C(Oc1ccc(Cl)cc1)n1cncn1` (stereo not drawn) [(E), triadimefon], the Emax at 2.5 g/ha with Sphaerotheca fuliginea (application rate 2.5 g/ha) stood at 30%.

Take `CCC1(C(=O)N[C@H](C)c2ccc(Cl)cc2)C(C)C1(Cl)Cl` (stereo partly drawn) [(ω), N-(R)-[1-(4-chloro-phenyl)-ethyl]-2,2-dichloro-1-ethyl-3t-methyl-1r-cyclopropane-carboxarnide]: the “% efficacy” value in the experiment with Phytophthora infestans (setting [9]) was determined as 5%.

For cymoxanil [(M)], in the experiment on Phytophthora infestans (in vivo), the “% efficacy” value turned out to be 12%.

For `Cc1cc(C)nc(Nc2ccccc2)n1` [(Q), pyrimethanil], the Emax at 12.5 g/ha in the experiment with Sphaerotheca fuliginea came out at 10%.

Consider `CCCN(CC)CC1COC2(CCC(C(C)(C)C)CC2)O1` (stereo not drawn) [(δ), 8-t-butyl-2-(N-ethyl-N-n-propyl-amino)-methyl-1,4-dioxaspiro[5.4]-decane], for which the Efficacy in % amounted to 25% in the experiment on Leptosphaeria nodorum [1] (application rate 12.5 g/ha); 13% in the experiment on Puccinia recondita [2]; 14% in [3] (application rate 6.25 g/ha); 25% in the experiment on Leptosphaeria nodorum [4]; 0% in experiment [5] (application rate 6.25 g/ha). The “% efficacy” value with Sphaerotheca fuliginea (application rate 2.5 g/ha) worked out at 10%.

For `N#Cc1c[nH]cc1-c1cccc2c1OC(F)(F)O2` [(Y), fludioxonil], the values for the pest or weed control at 6.25 g/ha in the experiment with Puccinia recondita [2] and in the experiment on Leptosphaeria nodorum [4] were 13% and 25%, respectively. Also, the Efficacy in % in experiment [7] (application rate 25 g/ha) is listed as 0%; in the experiment on Fusarium nivale (setting [11]) it was 92%.

Regarding `Fc1ccc([C@]2(Cn3cncn3)O[C@H]2c2ccccc2Cl)cc1` (racemic) [(V), epoxiconazole], the pest or weed control at 6.25 g/ha came to 81% in the experiment with Puccinia recondita [2] and 50% with Leptosphaeria nodorum [4]. The Efficacy in % in [5] (application rate 12.5 g/ha) worked out at 92%.

`O=C1c2ccccc2C(=O)N1SC(Cl)(Cl)Cl` [(K), folpet]: in the experiment with Phytophthora infestans (setting [8]), the Emax at 10 g/ha was determined as 27%.

`N#Cc1c[nH]cc1-c1cccc(Cl)c1Cl` [(Fenpiclonil) V, fenpiclonil]: the Efficacy in % in the experiment on Fusarium nivale (setting [11]) is recorded as 67%.

Turning to `CC(C)(C)C(O)(CCc1ccc(Cl)cc1)Cn1cncn1` (stereo not drawn) [(D), tebuconazole], the Emax at 5 g/ha with Phytophthora infestans (setting [8]) is 26%. The pest or weed control at 6.25 g/ha came to 38% with Puccinia recondita [2] and 25% with Leptosphaeria nodorum [4]. Also, the Efficacy in % in [3] (application rate 6.25 g/ha) is reported as 0%; in [5] (application rate 6.25 g/ha) it was 33%; in [5] (application rate 25 g/ha), 83%; in the experiment on Fusarium nivale (setting [10]), 20%.

`O=[N+]([O-])c1cc(C(F)(F)F)c(Cl)c([N+](=O)[O-])c1Nc1ncc(C(F)(F)F)cc1Cl` [(π), fluazinam]: in the experiment with Phytophthora infestans (setting [8]), the Emax at 5 g/ha came to 11%.

Take `Cc1ccc(N(SC(F)(Cl)Cl)S(=O)(=O)N(C)C)cc1` [(B2), tolylfluanide]: the “% efficacy” value in the experiment on Sphaerotheca fuliginea (application rate 25 g/ha) was determined as 22%.

Consider `CO/C=C(/C(=O)OC)c1ccccc1Oc1cc(Oc2ccccc2C#N)ncn1` [(U), azoxystrobin], for which the Emax at 2.5 g/ha with Sphaerotheca fuliginea (application rate 2.5 g/ha) was found to be 57%.

Take `CCO[PH](=O)O` [(O), fosetyl-Al]: the Emax at 250 g/ha with Botrytis cinerea came out at 4%.
